Source: patent US20070099982A1, “Use of chp as an inhibitor of glutathione s-transferases and collagen IV” (priority 2003, published 2007)
Like-named read-outs stand apart in the source and are kept apart here.

Legend:
collagen IV = settings: mean of 12 healthy subjects, 4×2 g CHP per day over 14 days
Description: CHP was repeatedly administered over 14 days, using 4×2 g of CHP per day.

[1] = test system: α-glutathione S transferase; settings: mean of 12 healthy subjects, 4×2.0 g CHP/day over 14 days

## O=C(O)[C@@H]1C[C@@H](O)CN1 (relative stereo) [CHP, cis-hydroxy-L-proline]
Collagen IV; day 0
  Concentration of collagen IV in serum, MEAN: 115.39
Collagen IV; day 7
  Concentration of collagen IV in serum, MEAN: 93.03
Collagen IV; day 13
  Concentration of collagen IV in serum, MEAN: 99.79
Collagen IV; day 13.25
  Concentration of collagen IV in serum, MEAN: 92.87
Collagen IV; day 14
  Concentration of collagen IV in serum, MEAN: 97.77
Collagen IV; day 17
  Concentration of collagen IV in serum, MEAN: 93.45
[1]; day 0
  Concentration of α-glutathione S transferase in serum, MEAN: 0.46
[1]; day 7
  Concentration of α-glutathione S transferase in serum, MEAN: 0.37
[1]; day 13
  Concentration of α-glutathione S transferase in serum, MEAN: 0.26
[1]; day 13.25
  Concentration of α-glutathione S transferase in serum, MEAN: 0.20
[1]; day 14
  Concentration of α-glutathione S transferase in serum, MEAN: 0.21
[1]; day 17
  Concentration of α-glutathione S transferase in serum, MEAN: 0.18
